In the Kinase Knowledgebase extract (Sharma et al. 2016) one finds IC50 data, which are given here for 15 molecules.

For the assay, the target named is MAPK14 (human) (UniProt Q16539). The assay can be described thus: Inhibition of LPS Stimulated TNF-alpha Production in THP-1 Cells. The settings on record: thp1.
Chain of MAPK14 (human) (Q16539 whole entry, looked up): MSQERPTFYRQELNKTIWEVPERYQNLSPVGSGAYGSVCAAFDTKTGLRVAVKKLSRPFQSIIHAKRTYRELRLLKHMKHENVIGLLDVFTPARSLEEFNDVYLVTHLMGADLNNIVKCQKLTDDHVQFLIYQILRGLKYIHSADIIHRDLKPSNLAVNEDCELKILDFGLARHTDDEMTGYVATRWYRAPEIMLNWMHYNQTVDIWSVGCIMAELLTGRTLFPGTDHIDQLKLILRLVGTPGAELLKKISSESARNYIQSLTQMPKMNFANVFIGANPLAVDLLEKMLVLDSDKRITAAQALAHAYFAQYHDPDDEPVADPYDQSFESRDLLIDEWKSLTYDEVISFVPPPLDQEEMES

For `COc1ccc(-c2nc(NC(=O)c3cccnc3)sc2-c2ccnc(NC(=O)c3cccnc3)c2)cc1`, the IC50 was 0.026 µM. Under `COc1ccc(-c2nc(N)sc2-c2ccnc(NC(=O)c3ccccc3)c2)cc1` stands 0.014 µM.

For `Cc1cccc(-c2nc(N)sc2-c2ccncc2)c1`, the IC50 was 0.046 µM.

`CNc1nc(-c2ccc(OC)cc2)c(-c2ccncc2)s1` registered a half-inhibitory concentration (IC50) of 0.14 µM. Under `CCc1nc(-c2ccc(Cl)cc2)c(-c2ccnc(NC(=O)c3ccccc3)c2)s1` stands 0.015 µM. The value for `CCc1nc(-c2cccc(C)c2)c(-c2ccnc(NC(=O)c3ccsc3)c2)s1` was 0.0059 µM; that for `CCC(=O)Nc1cc(-c2sc(-c3ccc(S(C)(=O)=O)cc3)nc2-c2cccc(Cl)c2)ccn1` was 0.021 µM. The value for `Cc1cc(C)cc(-c2nc(N)sc2-c2ccnc(NCc3ccccc3)c2)c1` was 0.14 µM. The molecule `CCCc1nc(-c2cccc(C)c2)c(-c2ccnc(N)c2)s1` had an IC50 of 0.002 µM. On to `CNc1nc(-c2ccc(Cl)cc2)c(-c2ccncc2)s1`, for which the concentration for half-maximal inhibition (IC50) is 0.18 µM. The value for `CCc1nc(-c2cccc(Cl)c2)c(-c2ccnc(NC3CCCCC3)c2)s1` was 0.055 µM; that for `CCc1nc(-c2cccc(Cl)c2)c(-c2ccnc(N[C@@H](C)c3ccccc3)c2)s1` was 0.057 µM.

Consider `Cc1cc(C)cc(-c2nc(N)sc2-c2ccnc(NC(=O)c3ccccc3)c2)c1`, for which the half-maximal inhibitory concentration (IC50) was 0.02 µM. Under `CCc1nc(-c2cccc(Cl)c2)c(-c2ccnc(NC(C)=O)c2)s1` stands 0.12 µM.

For the molecule `Cc1cccc(-c2nc(N(C)C(=O)c3ccc(C)nc3)sc2-c2ccnc(NC3CCCC3)c2)c1`, the IC50 amounted to 0.082 µM.
